From patent US12319664B2, “Herbicidally active 3-phenylisoxazoline-5-carboxamides of cyclopentenylcarboxylic acid derivatives” (Bayer Aktiengesellschaft, priority 2018, dated 2025)

Tests used:
[1] = test system: LOLRI; assay: Post-emergence herbicidal action against LOLRI; type: in vivo, Lolium rigidum; conditions: application rate 80 g/ha, rated visually after about 3 weeks
Outline: (§1)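 Post-emergence spray, one-leaf stage; sandy loam, greenhouse; WP/EC in water + 0.5% additive, 600 l/ha; visual % damage vs untreated at ~3 wk (100% = dead).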

[2] = test system: POLCO; assay: Post-emergence herbicidal action against POLCO; type: in vivo, Polygonum convolvulus; conditions: application rate 80 g/ha, rated visually about 3 weeks after treatment
Outline: as §1

[3] = test system: MATIN; assay: Post-emergence herbicidal action against MATIN; type: in vivo, Matricaria inodora; conditions: application rate 80 g/ha, rated visually about 3 weeks after treatment
Experimental: [table] 2. Post-emergence herbicidal action against harmful plants and crop plant compatibility Seeds of monocotyledonous and dicotyledonous weeds and crop plants are placed in sandy loam in plastic or wood-fibre pots, covered with soil and cultivated in a greenhouse under controlled growth conditions. 2 to 3 weeks after sowing, the test plants are treated at the one-leaf stage. The compounds of the invention, formulated in the form of wettable powders (WP) or as emulsion concentrates (EC), are then sprayed onto the green parts of the plants as aqueous suspension or emulsion with addition of 0.5% additive at a water application rate of 600 l/ha (converted). After the test plants have been kept in the greenhouse under optimum growth conditions for about 3 weeks, the activity of the preparations is rated visually in comparison to untreated controls. For example, 100% activity=the plants have died, 0% activity=like control plants.

[4] = test system: ALOMY; assay: Post-emergence herbicidal action against ALOMY; type: in vivo, Alopecurus myosuroides; conditions: application rate 80 g/ha, rated visually after about 3 weeks
Outline: as §1

[5] = test system: AMARE; assay: Post-emergence herbicidal action against AMARE; type: in vivo, Amaranthus retroflexus; conditions: application rate 80 g/ha, rated visually about 3 weeks after treatment
Outline: as §1

[6] = test system: SETVI; assay: Post-emergence herbicidal action against SETVI; type: in vivo, Setaria viridis; conditions: application rate 80 g/ha, rated visually after about 3 weeks
Outline: as §1

[7] = test system: VERPE; assay: Post-emergence herbicidal action against VERPE; type: in vivo, Veronica persica; conditions: application rate 80 g/ha
Outline: as §1

[8] = test system: STEME; assay: Post-emergence herbicidal action against STEME; type: in vivo, Stellaria media; conditions: application rate 80 g/ha, rated visually about 3 weeks after treatment
Outline: as §1

[9] = test system: HORMU; assay: Post-emergence herbicidal action against HORMU; type: in vivo, Hordeum murinum; conditions: application rate 80 g/ha
Outline: as §1

[10] = test system: AVEFA; assay: Post-emergence herbicidal action against AVEFA; type: in vivo, Avena fatua; conditions: application rate 80 g/ha, rated visually after about 3 weeks
Outline: as §1

[11] = test system: VIOTR; assay: Post-emergence herbicidal action against VIOTR; type: in vivo, Viola tricolor; conditions: application rate 80 g/ha, rated visually about 3 weeks after treatment
Outline: as §1

[12] = test system: ABUTH; assay: Post-emergence herbicidal action against ABUTH; type: in vivo, Abutilon theophrasti; conditions: application rate 80 g/ha, rated visually about 3 weeks after treatment
Outline: as §1

[13] = test system: ECHCG; assay: Post-emergence herbicidal action against ECHCG; type: in vivo, Echinochloa crus-galli; conditions: application rate 80 g/ha, rated visually after about 3 weeks
Outline: as §1

[14] = test system: PHBPU; assay: Post-emergence herbicidal action against PHBPU; type: in vivo, Pharbitis purpurea; conditions: application rate 80 g/ha, rated visually about 3 weeks after treatment
Outline: as §1

SMILES | Herbicidal action against [%] LOLRI [1] | Herbicidal action against [%] POLCO [2] | Herbicidal action against [%] MATIN [3] | Herbicidal action against [%] ALOMY [4] | Herbicidal action against [%] AMARE [5] | Herbicidal action against [%] SETVI [6] | Herbicidal action against [%] VERPE [7] | Herbicidal action against [%] STEME [8] | Herbicidal action against [%] HORMU [9] | Herbicidal action against [%] AVEFA [10] | Herbicidal action against [%] VIOTR [11] | Herbicidal action against [%] ABUTH [12] | Herbicidal action against [%] ECHCG [13] | Herbicidal action against [%] PHBPU [14]
C=CC1(C(=O)N[C@H]2C=C[C@@H](C(=O)OCC(F)F)C2)CC(c2cc(F)cc(F)c2)=NO1 (stereo partly shown) [Example I-016] | 100% | 90% | 80% | 100% | 90% | 90% | 90% | 100% | 90% | 90% | 80% | 90% | 100% | 
C=CC1(C(=O)NC2C=CC(C(=O)NS(=O)(=O)CCC)C2)CC(c2cc(F)cc(F)c2)=NO1 (mixture of isomers) [II-14] | 100% | 90% | 90% | 100% | 90% | 90% | 90% |  | 90% | 100% | 90% |  | 100% | 
CC1(C(=O)N[C@H]2C=C[C@@H](C(=O)OCc3ccccc3)C2)CC(c2cc(F)cc(F)c2)=NO1 (stereo partly shown) [Example I-008] | 90% | 90% | 90% | 100% | 90% | 90% | 90% | 90% | 90% | 90% |  | 90% | 90% | 90%
COC(=O)[C@@H]1C=C[C@H](NC(=O)C2(C(F)(F)F)CC(c3cc(C)cc(F)c3)=NO2)C1 (stereo partly shown) [Example I-024] | 90% | 90% | 80% | 90% | 90% | 80% | 80% |  | 80% | 100% | 80% | 80% | 90% | 
COC(=O)[C@@H]1C=C[C@H](NC(=O)C2(C(F)(F)F)CC(c3cc(C)cc(Cl)c3)=NO2)C1 (stereo partly shown) [Example I-027] | 90% |  | 90% | 90% | 80% | 90% | 80% | 80% | 80% | 90% | 80% | 80% | 80% | 
Cc1cc(F)cc(C2=NOC(C(=O)NC3C=CC(C(=O)OCC(F)(F)F)C3)(C(F)(F)F)C2)c1 (mixture of isomers) [Example I-032] | 90% | 100% | 80% | 90% | 90% | 90% | 80% |  | 80% | 100% | 80% |  |  | 
CCOC(=O)[C@@H]1C=C[C@H](NC(=O)C2(C(F)(F)F)CC(c3cc(C)cc(F)c3)=NO2)C1 (stereo partly shown) [Example I-022] | 100% | 100% | 80% | 100% | 100% | 100% | 80% |  | 80% | 100% | 80% | 90% | 80% | 
C=CC1(C(=O)NC2C=CC(C(=O)OCc3ccccc3)C2)CC(c2cc(F)cc(F)c2)=NO1 (mixture of isomers) [Example I-033] | 90% | 100% | 90% | 90% | 90% | 90% | 80% | 80% | 80% | 90% |  | 80% | 90% | 80%
CCOC(=O)C1C=CC(NC(=O)C2(C(F)(F)F)CC(c3cc(C)cc(C(F)(F)F)c3)=NO2)C1 (mixture of isomers) [Example I-036] | 90% | 90% | 80% | 90% | 80% |  | 80% |  | 80% | 80% | 90% | 80% |  | 
